{"source": "patent US20230279482A1", "about": "“COMPOSITIONS, METHODS AND USES FOR QUANTIFYING TRANSCRIPTION AND BIOSENSING OF SMALL MOLECULES USING A NOVEL TYPE VI CRISPR-CAS ASSAY” (THE REGENTS OF THE UNIVERSITY OF COLORADO, A BODY CORPORATE, priority 2020, published 2023)", "key": {"[1]": {"test_system": "guanine riboswitch xpt/pbuE*6U", "test": "SPRINT compound screen on guanine riboswitch", "assay_type": "biochemical", "conditions": "10 μM and 1 mM for most compounds, solvent signal subtracted, FIG. 9A", "experimental": "Briefly, the transcriptional response of the guanine riboswitch xpt/pbuE*6U to 30 different compounds was measured at two different concentrations each (FIG. 9A and FIG. 10). The concentrations used were 10 μM and 1 mM for most compounds. The signal that was obtained from control experiments with the solvents DMSO or water was subtracted from all values."}, "[2]": {"test_system": "SPRINT assay without riboswitch (constitutively transcribed Cas13a target)", "test": "SPRINT control screen with constitutive promoter template (PAINS identification)", "conditions": "constitutive promoter template, FIG. 9B", "protocol": "The master mix was gently mixed by pipetting up and down and incubated at 37° C. for 15 minutes to allow binding of crRNA to Cas13a protein and the microwell plate was prepared by adding 3 μL of 10× ligand to the wells. The reaction was initiated by addition of rNTPs to the master mix to a concentration of 20 μM and then 27 μL of the complete master mix were added to each well and pipetted up and down to mix with the ligand in the wells. The plate was covered with an optical adhesive film to prevent evaporation of the sample while taking fluorescence measurements in a plate reader that was preheated to 37° C."}, "[3]": {"test_system": "flavin mononucleotide (FMN) riboswitch ribD/pbuE*7U", "test": "SPRINT assay with FMN riboswitch", "assay_type": "biochemical, B. subtilis", "conditions": "10 mM MgCl2, FIG. 4B", "experimental": "(§1) SPRINT reactions. Pentauridine RNA oligonucleotides were labeled with carboxyfluorescein (FAM) or TEX 615 at the 5′-end and with Iowa Black FQ at the 3′-end. Fluorescence measurements were taken at wavelengths 490/525 nm (excitation/emission) when the FAM fluorophore was used. In reactions with flavin-containing ligands, TEX-labeled RNA oligos were used at the wavelengths 576/615 (excitation/emission). Fluorescence measurements were taken every 5 minutes.\n(§2) For exemplary SPRINT assays, a master mix was first prepared and then mixed with the remaining reaction reagent components to yield a final reaction volume of 30 μL; fluorescent readings of the entire reaction volume were performed in Corning 384 Flat Bottom Black Polystyrol plates. This master mix (SPRINT buffer, 10×), for assays contemplated herein can include, but is not limited to: 700 mM Tris-HCl, pH 8.0, 700 mM NaCl, 1 mM EDTA, 140 mM β-mercaptoethanol, and 25 mM MgCl2. Aliquots of an exemplary 10× SPRINT buffer were stored at −20° C. and not allowed to undergo more than 10 freeze-thaw cycles.\nInitially, the observed ligand-dependent induction of the FMN riboswitch was very low. To improve this, the magnesium concentration in the SPRINT reaction was increased. […] Therefore, SPRINT reactions with the ribD/pbuE*7U riboswitch were conducted at 10 mM MgCl2 in these exemplary studies."}, "[4]": {"target": "T1, purine nucleoside phosphorylase (hPNP) (Homo sapiens, UniProt P00491)", "T1 sequence (P00491 1-289)": "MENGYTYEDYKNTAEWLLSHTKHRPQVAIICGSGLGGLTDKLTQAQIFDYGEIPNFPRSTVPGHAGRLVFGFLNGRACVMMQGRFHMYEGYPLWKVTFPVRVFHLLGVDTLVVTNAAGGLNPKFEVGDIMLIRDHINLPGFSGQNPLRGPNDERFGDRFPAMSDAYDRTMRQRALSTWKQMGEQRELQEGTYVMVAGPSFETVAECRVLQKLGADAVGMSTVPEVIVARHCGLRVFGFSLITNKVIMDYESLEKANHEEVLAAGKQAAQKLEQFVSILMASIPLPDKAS", "test": "Enzyme-coupled SPRINT assay (inosine to hypoxanthine, guanine riboswitch xpt/pbuE*6U)", "assay_type": "biochemical", "source_text": "As part of the human purine metabolism, the enzyme purine nucleoside phosphorylase (hPNP) can catalyze the phosphorylation of the ribose moiety of various purines and thereby remove the sugar from the nucleobase. The conversion of deoxyguanosine to deoxyguanine by hPNP can be inhibited with nucleoside analogs such as Immucillin-H (forodesine) which leads to accumulation of deoxyguanosine and consequent apoptosis in activated T-cells. Therefore, hPNP is an important drug target for the treatment for example, of leukemia, arthritis, multiple sclerosis and transplant rejection.\nIn these systems, the conversion of inosine to hypoxanthine via hPNP was coupled to the SPRINT reaction in a one-batch buffer system using the guanine riboswitch xpt/pbuE*6U (FIG. 9D)."}, "[5]": {"target": "zinc-responsive transcription factor smtB (Synechococcus elongatus, UniProt P30340)", "sequence (P30340 whole entry)": "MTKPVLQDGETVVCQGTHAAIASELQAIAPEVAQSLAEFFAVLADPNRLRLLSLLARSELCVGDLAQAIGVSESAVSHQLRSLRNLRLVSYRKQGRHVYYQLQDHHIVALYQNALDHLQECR", "test": "biochemical", "experimental": "In other exemplary methods, reactions with allosteric transcription factors (aTFs), ROSALIND reagent buffer (10× buffer containing, for assays contemplated herein, but not limited to: 400 mM Tris-HCl, pH 8.0, 200 mM NaCl, 20 mM spermidine, 100 mM DTT and 80 mM MgCl2) were used. The buffer was prepared fresh or stored as single-use aliquots at −80° C. […] The final concentration of the aTF monomers was either 2.5 μM tetR or 10 μM smtB. The master mix was incubated for 15 minutes at 37° C. which allows the aTFs to bind to the operator sequence.\nIn another exemplary method, bacterial transcription can be regulated by allosteric transcription factors (aTFs), such as activators or repressors, which have previously been used for small molecule detection. Another system (“ROSALIND”) enabled rapid detection of compounds via aTFs. […] The ROSALIND buffer system differs from the SPRINT or SHERLOCK buffer. Therefore, it was tested whether aTF-based ROSALIND reactions could be integrated with the Cas13a-based detection method. To simplify the system, the inorganic pyrophosphatase (IPPase) enzyme was first removed from the ROSALIND system. IPPase was used in transcription reactions to degrade pyrophosphate which was a reaction product of the RNA polymerase and can inhibit the reaction. […] Adaptions included reducing the concentrations of rNTP from 2.85 mM to 40 μM, DNA template from 25 to 15 nM, and T7 RNAP from 10 to 6.7 ng/μL.\nThe responses of the de-repressors tetR and smtB were measured with SPRINT."}, "[6]": {"test_system": "transcription and Cas13 reaction", "test": "Effect of agents on fluorescent signal of one-batch and two-batch assays", "assay_type": "biochemical", "conditions": "FIGS. 6D-6F", "experimental": "In another exemplary method, two-batch methods included, 30 μL in vitro transcription reactions carried out as described above but without addition of Cas13a, crRNA, labeled RNA oligos, RNase inhibitor. Then, the reaction was washed three times with 500 μL ddH2O using an centrifugal filter (0.5 ml, 10 kDa cutoff). After concentrating the solution to approximately 20 μL, aliquots of 6 μL were taken and added to a 24 μL of a SHERLOCK reaction (described below).\n(§3) The SELEX method (previously described) has been used to select the P1 aptamer that binds to the neurotransmitter serotonin (i.e. 5-hydroxytryptamine) and this aptamer was incorporated into the expression platform pbuE′ to generate a riboswitch for serotonin."}, "[7]": {"test_system": "serotonin riboswitch (P1 aptamer in expression platform pbuE′)", "test": "SPRINT assay with synthetic serotonin riboswitch", "assay_type": "biochemical", "conditions": "FIG. 4D", "experimental": "as §1, §2, §3"}, "[8]": {"test_system": "adenine riboswitch pbuE/pbuE‡", "test": "SPRINT assay with adenine riboswitch", "assay_type": "biochemical", "conditions": "FIG. 3D", "experimental": "as §1\nas §2, with “Aliquots of an exemplary 10× SPRINT buffer were stored at −20° C. and not allowed to undergo more than 10 freeze-thaw cycles.” left out\nThe transcriptional response of the well-characterized guanine riboswitch xpt/pbuE*6U and the adenine-responsive riboswitch pbuE/pbuE‡ to their respective ligand was measured by SPRINT and the radiolabeling method. The radiolabeling method used ^32P-labeled ATP for single turnover transcription assays, subsequent separation of the transcripts on an acrylamide gel, exposure to a phospho screen and quantification of the band intensities. […]"}, "FMN riboswitch ribB": {"test_system": "FMN riboswitch ribB", "conditions": "E. coli ribB; cited from earlier work"}, "FMN riboswitch": {"test_system": "FMN riboswitch", "conditions": "cited from earlier work"}, "metE riboswitch": {"test_system": "metE riboswitch", "test": "SPRINT assay with native metE OFF riboswitch (with heparin, single turnover)", "assay_type": "biochemical, B. subtilis", "conditions": "OFF switch, heparin added, FIG. 7B; read-out: T50 value (reduction of transcriptional rate)", "experimental": "For amplification of the native metE riboswitch from the genome, the following protocol was used: Colony PCR was performed, using the oligos “metE_fwd” (SEQ ID NO: 13) and “metE_rev” (SEQ ID NO: 14) at Tm=64° C. with Q5 DNA polymerase. The constant 5′ and 3′ parts of the SPRINT constructs were also amplified via PCR reactions, using any plasmid with a complete SPRINT sequence as template. The 5′ constant part was amplified with oligos “InsulatorOligo_fwd” (SEQ ID NO:1) and “e.coliProm_rev” (SEQ ID NO: 8). The 3′ constant part was amplified with oligos “RiboswitchBB_fwd” (SEQ ID NO: 7) and “ssDNA1_rev” (SEQ ID NO: 2). […] The PCR product was purified, quantified and used for a SPRINT reaction.\nIn another exemplary method, certain riboswitches described herein were re-engineered for certain properties such as wide dynamic range and a ligand-induced “ON”. […] Initially, measurements at intermediate concentrations of SAM were difficult to quantify because the high rate of transcription from the B. subtilis metE OFF-switch required very high concentrations of SAM to repress the signal (FIG. 8). […]"}, "[9]": {"test_system": "S-adenosylmethionine (SAM)-responsive riboswitch yitJ/pbuE*6U", "test": "SPRINT assay with SAM riboswitch", "assay_type": "biochemical", "conditions": "FIG. 4A", "experimental": "as §1, §2\nIn another exemplary method, to test the versatility of SPRINT, small-molecule dependent transcriptional regulation of various riboswitches was examined. […]"}}, "data": [{"smiles": "Nc1nc2c(c(=O)[nH]1)CC=N2", "note": "[7-deazaguanine]", "values": [{"measurement": "transcriptional response at low and high concentration", "setting": "[1]", "value": "some activation of transcription at low concentrations but no or reduced activation at high concentrations"}, {"measurement": "interference with SPRINT assay (PAINS)", "setting": "[2]", "value": "interfering compounds"}]}, {"smiles": "CNc1ncnc2nc[nH]c12", "note": "[N6-methyladenine]", "values": [{"measurement": "transcriptional response at low and high concentration", "setting": "[1]", "value": "did not cause a transcriptional response at low or high concentrations"}]}, {"smiles": "Cc1cc2nc3c(=O)[nH]c(=O)nc-3n(C[C@H](O)[C@H](O)[C@H](O)COP(=O)(O)O)c2cc1C", "note": "[FMN, flavin mononucleotide]", "values": [{"measurement": "EC50", "setting": "[3]; read-out: T50 value (ligand concentration at half-maximal activation of transcription)", "value": "~1.01", "unit": "µM"}]}, {"smiles": "OC[C@H]1O[C@@H](n2cnc3c(O)ncnc32)[C@H](O)[C@@H]1O", "note": "[inosine]", "values": [{"measurement": "hypoxanthine production by hPNP on titration", "setting": "[4]; FIG. 9F", "value": "concentration-dependent increase"}]}, {"smiles": "[Zn+2]", "note": "[zinc]", "values": [{"measurement": "EC50", "setting": "[5]", "value": "4.8 ± 0.3", "unit": "µM"}, {"measurement": "selectivity versus control copper", "setting": "[5]; FIG. 7C", "value": "high selectivity"}]}, {"smiles": "NCCc1c[nH]c2ccc(O)cc12", "note": "[serotonin, 5-hydroxytryptamine]", "values": [{"measurement": "inhibitory effect on transcription and Cas13 reaction", "setting": "[6]", "value": "specifically inhibited the transcription and also Cas13 reaction"}, {"measurement": "EC50", "setting": "[7]; read-out: T50 value", "value": "5 ± 3", "unit": "µM"}]}, {"smiles": "Nc1nc2nc[nH]c2c(=O)[nH]1", "note": "[guanine]", "values": [{"measurement": "transcriptional response at low and high concentration", "setting": "[1]", "value": "equally strong transcriptional activation at low and high concentrations"}, {"measurement": "response of adenine riboswitch to ligand", "setting": "[8]", "value": "not"}]}, {"smiles": "Nc1ncnc2nc[nH]c12", "note": "[adenine]", "values": [{"measurement": "response of adenine riboswitch to ligand", "setting": "[8]", "value": "responded efficiently"}]}, {"smiles": "O=c1cc(-c2cccs2)nc([C@H]2CCCN(Cc3cn(-c4ncccn4)cn3)C2)[nH]1", "note": "[ribocil-C]", "values": [{"measurement": "agonism of FMN riboswitch ribB", "setting": "FMN riboswitch ribB", "value": "strong agonist"}, {"measurement": "agonism of FMN riboswitch from F. nucleatum", "setting": "FMN riboswitch", "value": "strong agonist"}, {"measurement": "response / activation of FMN riboswitch", "setting": "[3]", "value": "no observable activation"}]}, {"smiles": "N[C@@H](Cc1c[nH]c2ccc(O)cc12)C(=O)O", "note": "[5-hydroxytryptophan]", "values": [{"measurement": "inhibitory effect on transcription and Cas13 reaction", "setting": "[6]", "value": "did not cause inhibitory effects"}]}, {"smiles": "C[S+](CC[C@H](N)C(=O)O)C[C@H]1O[C@@H](n2cnc3c(N)ncnc32)[C@H](O)[C@@H]1O", "note": "(some centres unmarked) [SAM, S-adenosylmethionine]", "values": [{"measurement": "EC50", "setting": "metE riboswitch", "value": "~1", "unit": "µM"}, {"measurement": "response of SAM riboswitch to ligand", "setting": "[9]", "value": "responsive"}]}, {"smiles": "NCCc1c[nH]c2ccccc12", "note": "[tryptamine]", "values": [{"measurement": "discrimination by serotonin riboswitch", "setting": "[7]", "value": "discriminated specifically against"}]}, {"smiles": "CNc1nc2nc[nH]c2c(=O)[nH]1", "note": "[N2-methylguanine]", "values": [{"measurement": "transcriptional response at low and high concentration", "setting": "[1]", "value": "only caused a strong transcriptional response at high concentrations"}, {"measurement": "interference with SPRINT assay (PAINS)", "setting": "[2]", "value": "interfering compounds"}]}, {"smiles": "Cc1cc2nc3c(=O)[nH]c(=O)nc-3n(C[C@H](O)[C@H](O)[C@H](O)COP(=O)(O)OP(=O)(O)OC[C@H]3O[C@@H](n4cnc5c(N)ncnc54)[C@H](O)[C@@H]3O)c2cc1C", "note": "[flavin adenine dinucleotide (FAD), flavin adenine dinucleotide]", "values": [{"measurement": "response / activation of FMN riboswitch", "setting": "[3]", "value": "low-affinity response"}]}, {"smiles": "O=c1[nH]cnc2c([C@@H]3N[C@H](CO)[C@@H](O)[C@H]3O)c[nH]c12", "note": "[Immucillin-H]", "values": [{"measurement": "effect on hPNP enzymatic activity", "setting": "[4]; inhibitor at 100-fold lower concentration than substrate inosine, FIG. 9E", "value": "significant reduction in the enzymatic activity"}]}]}
